In publication doi:10.1101/2021.04.29.441652v1 (biorxiv, 2021) one finds remaining activity data, which are given here for 71 compounds.

In this experiment the target is human σ2 receptor (TMEM97) (Homo sapiens, UniProt Q5BJF2). The experiment is described as follows: biochemical. The experiment is classed as Expi293 membranes. Conditions: read-out: % of control remaining.
Sequence of human σ2 receptor (TMEM97) (Q5BJF2 whole entry): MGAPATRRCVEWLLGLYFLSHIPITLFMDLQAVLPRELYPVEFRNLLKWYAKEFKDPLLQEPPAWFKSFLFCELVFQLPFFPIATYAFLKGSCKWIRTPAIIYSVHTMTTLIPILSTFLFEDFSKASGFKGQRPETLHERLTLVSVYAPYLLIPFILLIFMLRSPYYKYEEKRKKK
For `Cc1ccc(NC(=O)C23CCC(CC2)N3)cc1[N+](=O)[O-]` [ZINC000911907143], the remaining activity at 1 µM amounted to 93.1%.
With `O=C(CN1CC[C@@H]2CCC[C@@H]21)Nc1cccc(I)c1` [ZINC000426526480] the figure was 92%; with `CCCN1C(=O)N(CC(C)(C)N2CCc3ccccc3C2)C(=O)[C@H]1CC` [ZINC000430847713], 67.3%.
Take `CN(Cc1ccccc1)C(=O)CNC(=O)C(=O)N[C@H]1CCCNC1` [ZINC000419445843]: the remaining activity at 1 µM was determined as 82.5%.
With `CN(C)S(=O)(=O)CCC(=O)N[C@H]1[C@@H]2CN(Cc3ccon3)C[C@@H]21` [ZINC001115282185] the figure was 109%.
`N/C(=N\Cc1cccc2c1OCCCO2)NC1CCCC1` [ZINC000269280100]: the remaining activity at 1 µM is 11.1%.
As to `Cc1noc(C)c1CNC(=O)C(=O)N1CCN(C2CCCC2)CC1` [ZINC000283462313], the remaining activity at 1 µM came out at 98.5%.
With `C[C@@H]1CN(CC(=O)NCCCO[C@@H](C)c2ccccc2)[C@H](C)CCO1` [ZINC001655120594] the figure was 112%.
`Cn1nc(C(=O)N2CC(O)(CNC(=O)C3=CCOCC3)C2)ccc1=O` [ZINC001042722400]: the remaining activity at 1 µM was 125%.
With `CS(=O)(=O)N1CC(C(=O)N2CC(=O)N(CC(F)(F)F)C2)C1` [ZINC000907721339] the figure was 119%.
With `CN1CC[C@]2(CCN(C(=O)CN3C(=O)NC4(CCCC4)C3=O)C2)C1` [ZINC000366544782] the figure was 110%; with `Cc1nc2n(n1)CCN(C(=O)C(=O)N[C@@H]1CCO[C@@H](CC(C)C)C1)C2` [ZINC000361132106], 76.4%; with `COC(=O)c1cccc(S(=O)(=O)N2CC[C@@H](N3CCCC3)[C@@H]2C)c1` [ZINC000286616311], 75%.
With `CCc1ocnc1C(=O)NC[C@H]1CN(C[C@@H](C)CC)CCO1` [ZINC001035320653] the figure was 119%.
As to `Cc1ccccc1Cc1nnc(CN2C[C@@H](N3CCCC3)C[C@H]2C)o1` [ZINC000367601434], the remaining activity at 1 µM came to 90.8%.
With `O=C(NCC[C@@H]1CCN(C(=O)c2ccncn2)C1)c1c[nH]c(=O)cn1` [ZINC001060201073] the figure was 76%; with `CCc1cc(C(=O)NC[C@H]2CN(CCn3cncn3)CCCO2)no1` [ZINC001073859800], 110%.
With `c1ccc(-c2csc(CN3CCC4(C3)OCCO4)c2)cc1` [ZINC000093013680] the figure was 89.6%; with `FC(F)(F)c1cccc([C@@]2(F)CCN(C[C@@H]3CCSC3)C2)c1` [ZINC000549824186], 20%; with `Cc1c(C(=O)N[C@@H]2CN(C(=O)C3=COCCC3)C[C@@H]2O)cnn1C` [ZINC000961583379], 91.1%.
With `CCNS(=O)(=O)CCNC(=O)C(=O)N[C@@H](C)C1=CCN(C)CC1` [ZINC001261177261] the figure was 70.9%; with `O=C(c1cncc(N2CCOCC2)c1)N1CCN2C(=O)NC[C@@H]2C1` [ZINC000408001865], 110%; with `O=C([C@H](O)c1cccc([N+](=O)[O-])c1)N1CC[C@H](N2CCCC2)C1` [ZINC000825615260], 104%.
For the compound `Cc1cc(C)nc(C(=O)NCCC2CCN(CCOC(C)C)CC2)c1` [ZINC001419404744], the remaining activity at 1 µM was 19.6%.
With `CCCC1CCC(CN2CCN(CC(=O)N(CC)CC)CC2)CC1` (centres unmarked) [ZINC000539406733] the figure was 34%; with `CCc1ccc([C@@H]2CCN(Cc3cc(=O)n4c(C)cccc4n3)C2)cc1` [ZINC000433044150], 5%; with `CN1CCN(CCCCNC(=O)C(=O)N2CCSCC2)CC1` [ZINC000555574173], 107%.
With `Cc1nc(C)c(CC(=O)N2CC[C@H](NC(=O)c3cnn[nH]3)C2)c(O)n1` [ZINC000938242679] the figure was 107%; with `CCn1ncnc1CN1CCCN(C(=O)C[C@H]2CC(=O)NC2=O)CC1` [ZINC000989806749], 118%.
With `Clc1ccccc1Cn1cc(CNc2nc3ccccc3[nH]2)cn1` [ZINC000683721842] the figure was 99.8%.
As to `CCc1cc(N2CCC[C@@H](N[C@H](C)c3ccc(OC)c(Cl)c3)C2)ncn1` [ZINC000536865847], the remaining activity at 1 µM was 36.3%.
With `NC(=O)[C@H](Cc1ccc(Cl)cc1)NCc1cc2ccccc2s1` [ZINC000517634594] the figure was 98.7%; with `O=C(NCC1CCN([C@H]2CCNC2=O)CC1)c1ccn(C(F)F)n1` [ZINC001001445660], 92.1%.
With `Cc1cc(C(=O)N2CC[C@H](N(C)Cc3ccc(C)c(C)c3)C2)on1` [ZINC000971070823] the figure was 90.9%; with `O=C(Nc1ccc2ncsc2c1)C(=O)N1CCCN(C2CCCC2)CC1` [ZINC000172648663], 96.3%; with `O=C1NCCC[C@@H]1N1CC[C@@H](c2cccc(Cl)c2)C1` [ZINC000336580930], 60.9%.
With `CNC(=O)CC[C@H]1CCCCN1Cc1cc(-c2ccccc2)on1` [ZINC000286502332] the figure was 139%; with `CC(=O)N1CCN(C(=O)C(=O)Nc2cnn(-c3ccccn3)c2)CC1` [ZINC000531495018], 99.3%; with `C[C@H]1C[C@@H](NC(=O)C(=O)Nc2cnn(CC(F)F)c2)CN1C1CC1` [ZINC000158577469], 111%.
For the compound `O=C1NCC[C@@H]1C(=O)N[C@H]1CCN(CCn2cc(Cl)cn2)C1` [ZINC001015510639], the remaining activity at 1 µM came to 87.4%.
With `Cc1ccccc1[C@H](OC[C@H](O)CN1Cc2ccccc2C1)c1ccccc1` [ZINC000518003593] the figure was 79.8%; with `O=C(NCCCC1CC1)C(=O)NC1CCN([C@H]2CCC[C@@H]2O)CC1` [ZINC000673584800], 110%; with `NC(=O)C1(N2CCCCC2)CCN(CC(=O)NCC2CCC2)CC1` [ZINC000880249690], 113%.
With `COc1ccnc(CN2CCC3(CC2)CCN(C(=O)C(C)C)C3)c1` [ZINC001040612984], the remaining activity at 1 µM was 100%.
With `CC[C@H]1CCN(CC(=O)Nc2cc(Cl)ccc2C#N)[C@H]1C` [ZINC001307701283] the figure was 62.5%; with `C[C@@H]1C[C@H](NC(=O)C(=O)N(C)Cc2c(Cl)cccc2Cl)CN1C1CC1` [ZINC000574318236], 100%; with `CCN1CC[C@H](N(CC)C(=O)c2cccc(C(F)(F)F)n2)C1` [ZINC000617924178], 126%.
With `CCOc1cc2c(cc1NC(=O)C[C@@H]1NCc3ccccc31)O[C@@H](C)C2` [ZINC000659267272] the figure was 101%; with `CN(CC(=O)Nc1c(Cl)cccc1Cl)C[C@@H]1CC1(C)C` [ZINC000662345330], 42.3%.
As for `Clc1ccccc1Cn1cc(CN2CCC[C@@H]2c2ccc[nH]2)cn1` [ZINC000676461131], the remaining activity at 1 µM turned out to be 63.8%.
With `O=C(NCCc1ccc(F)c(Br)c1)[C@H]1C[C@H](F)CN1` [ZINC000188412270] the figure was 106%; with `CS[C@@H]1CCN(Cc2cnc(C)n2-c2ccccc2)C1` [ZINC000295103757], 114%; with `O=C(C1CC2(CCC2)C1)N1CCCN(C[C@@H](O)c2ccccc2)CC1` [ZINC000981787500], 48.4%.
With `CCC[C@@H](C(=O)N(C)C[C@H]1CCCN1C)c1ccccc1` [ZINC000421701270] the figure was 76.1%; with `CCN1CC[C@H](N2CCC[C@@H](NC(=O)c3ccc(O)nn3)CC2)C1=O` [ZINC001052175095], 104%; with `C[C@@H](CNC(=O)C(=O)NCc1nnn(C)n1)N(C)Cc1ccccc1` [ZINC001328800283], 86.4%.
With `CC[C@@H]1CCC[C@H](NC(=O)[C@H](C)N2CCCCCC2)C1` [ZINC000525245955] the figure was 93.6%; with `N#Cc1ccccc1NC(=O)CCN1CCC(O)(c2c(F)cccc2F)CC1` [ZINC000186482223], 95.3%.
As for `O[C@]1(CN[C@@H]2CC[C@@H](Cc3ccccc3)C2)CCSC1` [ZINC000249076038], the remaining activity at 1 µM was 30.5%.
As for `CN(C[C@H](O)CN[C@@H]1C[C@H]2CCCCN2C1=O)C(=O)OC(C)(C)C` [ZINC000496403719], the remaining activity at 1 µM stood at 92.4%.
On to `CCOCCNC(=O)CN1C[C@@H](O)[C@H](NC(=O)[C@@]23COC[C@@H]2C3)C1` [ZINC001193095852], for which the remaining activity at 1 µM is 112%.
With `C[C@H]1CN/C(=N/Cc2cccc(OCc3ccccc3)c2)N1` [ZINC000261552362] the figure was 56.1%; with `C[C@H](CN(C)CC(=O)NCc1cccc(Cl)c1)c1ccccc1` [ZINC000589606863], 68.9%.
With `FC(F)(F)c1ccc(-c2nc(CN3CC[C@H](N4CCCC4)C3)cs2)cc1` [ZINC000170742095] the figure was 29.7%; with `CC(C)[C@H](C(=O)NC[C@H](C[C@@H](C)O)c1ccccc1)N1CCCCC1` [ZINC000159130997], 108%.
With `CO[C@@H]1CN(C(=O)NCc2ccnc(N3CCN(C)CC3)c2)CCO1` [ZINC000891830660] the figure was 116%.
As to `CN1CC[C@](O)(CNC(=O)c2cc3cc([N+](=O)[O-])ccc3s2)C1` [ZINC000358051108], the remaining activity at 1 µM is 102%.
With `CN1CC[C@H](C(=O)NC2CN(C(=O)Cc3ccc(F)cn3)C2)CC1=O` [ZINC000995125582] the figure was 102%.
Regarding `Cc1cc(F)c(CN[C@@H]2CCN(c3ccccc3C(N)=O)C2)c(Cl)c1` [ZINC000656499190], the remaining activity at 1 µM stood at 71.5%.
With `CC(C)N1CC[C@H](CCNC(=O)c2cc(-c3cccnc3)on2)C1` [ZINC001418905447] the figure was 130%; with `COCCN1CCC(N[C@H]2COc3cc(F)c(Br)cc32)CC1` [ZINC000504552433], 49.2%.
